Structures are written as SMILES.

Experiment [1] addresses Tyrosine-protein kinase FRK (Homo sapiens) (UniProt P42685). Briefly: Selectivity interaction (KinomeScan (DiscoverX)) EUB0001619a FRK. Conditions: at 1 µM.
For experiment [2], the target named is Platelet-derived growth factor receptor alpha (Homo sapiens, UniProt P16234). As to the kind of experiment: Selectivity interaction (KinomeScan (DiscoverX)) EUB0001619a PDGFRA. To be noted: at 1 µM.
Experiment [3] in a line: Selectivity interaction (KinomeScan (DiscoverX)) EUB0000607a CDPK1. To be noted: at 10 µM.
The target in experiment [4] is T1, Serine/threonine-protein kinase TAO1 (Homo sapiens) (UniProt Q7L7X3).
T1 sequence (whole entry): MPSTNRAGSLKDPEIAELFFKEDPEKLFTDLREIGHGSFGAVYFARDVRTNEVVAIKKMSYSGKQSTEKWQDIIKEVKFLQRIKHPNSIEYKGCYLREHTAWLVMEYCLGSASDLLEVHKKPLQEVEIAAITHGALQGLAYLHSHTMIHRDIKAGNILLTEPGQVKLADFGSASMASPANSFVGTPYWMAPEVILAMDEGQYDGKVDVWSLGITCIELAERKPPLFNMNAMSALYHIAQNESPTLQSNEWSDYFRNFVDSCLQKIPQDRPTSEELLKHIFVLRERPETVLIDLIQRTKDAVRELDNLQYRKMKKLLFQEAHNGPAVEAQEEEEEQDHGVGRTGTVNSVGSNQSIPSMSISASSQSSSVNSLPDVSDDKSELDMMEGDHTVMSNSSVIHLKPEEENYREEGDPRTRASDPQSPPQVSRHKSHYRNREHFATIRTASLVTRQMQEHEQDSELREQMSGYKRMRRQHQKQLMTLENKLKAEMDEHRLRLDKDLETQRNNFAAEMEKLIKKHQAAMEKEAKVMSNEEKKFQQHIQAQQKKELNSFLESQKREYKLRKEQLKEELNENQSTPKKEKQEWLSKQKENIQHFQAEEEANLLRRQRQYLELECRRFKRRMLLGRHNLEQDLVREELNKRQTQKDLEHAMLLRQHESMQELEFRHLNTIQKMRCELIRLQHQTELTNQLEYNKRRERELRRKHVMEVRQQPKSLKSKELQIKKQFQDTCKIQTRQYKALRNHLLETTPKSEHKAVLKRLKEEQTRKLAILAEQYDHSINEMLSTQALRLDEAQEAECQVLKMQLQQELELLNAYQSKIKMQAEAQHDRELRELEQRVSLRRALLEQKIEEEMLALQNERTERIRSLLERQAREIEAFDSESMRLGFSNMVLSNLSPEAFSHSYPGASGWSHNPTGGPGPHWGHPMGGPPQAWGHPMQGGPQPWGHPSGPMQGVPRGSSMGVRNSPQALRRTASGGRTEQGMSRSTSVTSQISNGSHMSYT
As to the kind of experiment: Selectivity interaction (KinomeScan (DiscoverX)) EUB0000607a TAOK1. Conditions: at 10 µM.

The target in experiment [5] is Phosphatidylinositol 3-kinase catalytic subunit type 3 (Homo sapiens, UniProt Q8NEB9). Briefly: Selectivity interaction (ActivX KiNativ screen (kinase selectivity in THP-1 cell lysates)) EUB0000639a PIK3C3. Format: subcellular. Conditions: lysate, at 5 µM.
Experiment [6] concerns the target Phosphatidylinositol 4,5-bisphosphate 3-kinase catalytic subunit alpha isoform (Homo sapiens) (UniProt P42336). Briefly: (§1) Selectivity interaction (Ambit KINOMEscan and KiNATiv profiling in Jurkat cells) EUB0000090b PIK3CA. Format: cell-based. Conditions: at 1 µM.
Experiment [7] has as its system Phosphatidylinositol 4,5-bisphosphate 3-kinase catalytic subunit alpha isoform (Homo sapiens), P42336 [C420R]. The experiment is described as §1. Format: cell-based. Conditions: at 1 µM.
The test system of experiment [8] is Phosphatidylinositol 4,5-bisphosphate 3-kinase catalytic subunit alpha isoform (Homo sapiens), P42336 [E542K]. The experiment is described as §1. Format: cell-based. To be noted: at 1 µM.
Experiment [9] has as its system Phosphatidylinositol 4,5-bisphosphate 3-kinase catalytic subunit alpha isoform (Homo sapiens), P42336 [E545A]. The experiment is described as §1. It counts as cell-based. To be noted: at 1 µM.
The test system of experiment [10] is Phosphatidylinositol 4,5-bisphosphate 3-kinase catalytic subunit alpha isoform (Homo sapiens), P42336 [E545K]. The description is as §1. It counts as cell-based. Conditions: at 1 µM.
The test system of experiment [11] is Phosphatidylinositol 4,5-bisphosphate 3-kinase catalytic subunit alpha isoform (Homo sapiens), P42336 [H1047L]. The description is as §1. Format: cell-based. To be noted: at 1 µM.
Experiment [12] concerns Phosphatidylinositol 4,5-bisphosphate 3-kinase catalytic subunit alpha isoform (Homo sapiens), P42336 [H1047Y]. The description is as §1. To be noted: at 1 µM. It counts as cell-based.
Sequence of Phosphatidylinositol 4,5-bisphosphate 3-kinase catalytic subunit alpha isoform (Homo sapiens), P42336 [H1047Y] (P42336 whole entry H1047Y, canonical isoform): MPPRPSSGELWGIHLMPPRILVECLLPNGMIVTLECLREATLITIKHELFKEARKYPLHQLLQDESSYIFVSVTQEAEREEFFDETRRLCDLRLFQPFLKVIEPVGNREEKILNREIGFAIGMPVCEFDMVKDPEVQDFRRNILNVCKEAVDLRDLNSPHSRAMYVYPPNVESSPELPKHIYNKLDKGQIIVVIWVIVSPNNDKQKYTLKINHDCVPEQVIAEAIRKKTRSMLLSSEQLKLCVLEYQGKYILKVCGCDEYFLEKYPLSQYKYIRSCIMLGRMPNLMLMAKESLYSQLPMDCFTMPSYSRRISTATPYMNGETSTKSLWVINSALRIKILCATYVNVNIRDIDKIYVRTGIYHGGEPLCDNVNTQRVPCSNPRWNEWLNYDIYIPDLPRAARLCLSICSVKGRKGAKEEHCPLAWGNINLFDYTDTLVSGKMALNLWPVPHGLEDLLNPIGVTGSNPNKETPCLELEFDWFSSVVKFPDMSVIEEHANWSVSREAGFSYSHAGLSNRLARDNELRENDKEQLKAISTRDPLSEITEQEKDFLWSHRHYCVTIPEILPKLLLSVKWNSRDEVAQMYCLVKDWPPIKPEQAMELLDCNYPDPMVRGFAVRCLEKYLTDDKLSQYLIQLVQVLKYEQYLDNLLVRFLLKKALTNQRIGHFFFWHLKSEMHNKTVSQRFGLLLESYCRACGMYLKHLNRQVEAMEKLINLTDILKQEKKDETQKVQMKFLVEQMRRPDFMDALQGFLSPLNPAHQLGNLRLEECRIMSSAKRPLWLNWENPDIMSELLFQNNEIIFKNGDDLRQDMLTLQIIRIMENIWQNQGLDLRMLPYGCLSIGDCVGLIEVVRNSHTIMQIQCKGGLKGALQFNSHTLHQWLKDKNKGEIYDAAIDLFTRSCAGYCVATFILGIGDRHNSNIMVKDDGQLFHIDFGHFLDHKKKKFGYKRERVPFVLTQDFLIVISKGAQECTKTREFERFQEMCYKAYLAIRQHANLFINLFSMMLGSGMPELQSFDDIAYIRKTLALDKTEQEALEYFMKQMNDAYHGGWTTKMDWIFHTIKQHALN
Experiment [13] concerns Phosphatidylinositol 4,5-bisphosphate 3-kinase catalytic subunit alpha isoform (Homo sapiens), P42336 [I800L]. The experiment is described as §1. It counts as cell-based. To be noted: at 1 µM.
Experiment [14] has as its system Phosphatidylinositol 4,5-bisphosphate 3-kinase catalytic subunit alpha isoform (Homo sapiens), P42336 [M1043I]. Described as §1. It counts as cell-based. Conditions: at 1 µM.
Experiment [15] concerns Phosphatidylinositol 4,5-bisphosphate 3-kinase catalytic subunit alpha isoform (Homo sapiens), P42336 [Q546K]. The description is as §1. It counts as cell-based. To be noted: at 1 µM.
Sequence of Phosphatidylinositol 4,5-bisphosphate 3-kinase catalytic subunit alpha isoform (Homo sapiens), P42336 [Q546K] (P42336 whole entry Q546K, canonical isoform): as the sequence (P42336 whole entry H1047Y, canonical isoform) above, with Q546K, Y1047H counted along it
The target of a further experiment is Aurora kinase B (Homo sapiens, UniProt Q96GD4). As to the kind of experiment: Selectivity interaction (KinomeScan (DiscoverX)) EUB0001049a AURKB. To be noted: at 1 µM.
Sequence of Aurora kinase B (Q96GD4 whole entry): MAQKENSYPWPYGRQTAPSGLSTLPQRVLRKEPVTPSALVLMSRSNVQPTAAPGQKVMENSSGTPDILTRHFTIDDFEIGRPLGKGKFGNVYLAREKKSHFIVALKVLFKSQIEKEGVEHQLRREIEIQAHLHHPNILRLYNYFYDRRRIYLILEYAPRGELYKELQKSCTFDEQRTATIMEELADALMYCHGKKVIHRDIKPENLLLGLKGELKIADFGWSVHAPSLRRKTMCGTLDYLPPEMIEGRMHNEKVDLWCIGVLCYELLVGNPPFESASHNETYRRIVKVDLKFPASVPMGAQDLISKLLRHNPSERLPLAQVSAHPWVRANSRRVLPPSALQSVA

Sequence of Phosphatidylinositol 4,5-bisphosphate 3-kinase catalytic subunit alpha isoform (Homo sapiens), P42336 [C420R] (P42336 whole entry C420R, canonical isoform): as the sequence (P42336 whole entry H1047Y, canonical isoform) above, with C420R, Y1047H counted along it
Sequence of Phosphatidylinositol 4,5-bisphosphate 3-kinase catalytic subunit alpha isoform (Homo sapiens) (P42336 whole entry, canonical isoform): as the sequence (P42336 whole entry H1047Y, canonical isoform) above, with Y1047H counted along it

Consider `N#Cc1cccc(-c2c[nH]c3ncnc(N4CCOCC4)c23)c1`, for which the results for the % of control in experiment [1] and in [2] were 88% and 100%, respectively.
With `CNC(=O)Nc1ccc(-c2nc(N3CC4CCC(C3)O4)c3cnn(C4CCC5(CC4)OCCO5)c3n2)cc1`, the % of control worked out at 86% in [3] and 100% in experiment [4].
Compound `CC[C@@H]1[C@H](F)C(=O)N[C@@H]1COc1nccc2cc(C(N)=O)c(OC)cc12` [ZIMLOVISERTIB] showed a % of inhibition in experiment [5] of 30.7%.
As to `CN(C)C/C=C/C(=O)Nc1ccc(C(=O)N2CCCC(Nc3ncc(Cl)c(-c4c[nH]c5ccccc45)n3)C2)cc1` (stereo unspecified), the % of control in experiment [6] came out at 92%; in experiment [7] it was 87%; in experiment [8], 93%; in [9], 83%; in [10] it was 99%; in experiment [11], 100%. In addition, the % of control in experiment [12] worked out at 95%; in experiment [13], 89%; in experiment [14] it was 100%; in experiment [15], 98%.
For `COc1cc(Nc2nc(C)cc(-c3cnn4nc(OC)ccc34)n2)cc(C(F)(F)F)c1`, on Aurora kinase B, the % of control worked out at 85%.

(Values after ChEMBL document CHEMBL5465560, “Selectivity Literature for EUbOPEN Chemogenomic Library” (2024).)
